The values below come from a melting point compilation (Tetko et al.; mined from patent text by program, amines drawn as free bases though some values may be those of a salt).

As usually defined, the melting point is the temperature of the solid-liquid transition. `Cn1c(COc2ccc(CC3SC(=O)NC3=O)cc2)nc2ccc(Oc3ccc(NC(=O)c4ccc(F)cc4F)cc3)cc21` (stereo not given) had a melting point of 172 to 174 °C. Under `N#Cc1ccc2c(c1)C1(c3ccccc3-2)c2ccccc2-c2ccc(C#N)cc21` stands 215 to 245 °C. Next, `CCCCNC(=N)c1ccc2[nH]c(=O)[nH]c2c1`: 168 °C. In the case of `CC(=O)OCc1nc2ccc(Oc3cc(C)c(OC(C)=O)c(C)c3C)nc2n1C`, the melting point lay in the range of 128 to 129 °C. On to `COc1ccc2c(c1)-c1cc(OC)ccc1C2=O`, for which the melting point lay within 123 to 125 °C. Next, `CN1CCN(c2cccc(Nc3nc4c(-c5cnn(-c6ccc(F)cc6)c5)cccn4n3)c2)CC1`: 216 to 218 °C; `COCCOc1cc2nncc(Oc3cc(O)c(C)cc3F)c2cc1OC`: 267 to 273 °C. Under `COc1cc(C)ccc1Oc1ccc(C=O)cc1C#N` stands 112 to 113 °C. Under `CC(=O)CNC(=O)c1ccccc1C` stands 65 to 66 °C. `CCCCc1ncc(C=CC(=O)O)n1Cc1ccccc1Cl` showed a melting point of 178 to 179 °C. Under `COC(=O)CCC(=C1SCCCS1)c1ccc(Oc2ccccc2)cc1` stands 95 to 96 °C.

Regarding `COc1cc(OC)c2c(=O)[nH]c(-c3ccc(Cc4nnn[nH]4)cc3)nc2c1`, the melting point was 295 to 296 °C.

For the compound `Nc1cc(Cl)cc(C(=O)N[C@@H]2CN3CCC2CC3)c1OCc1cccc(I)c1`, the melting point lay within 102 to 104 °C.

With `CCCCc1ccc2oc(=O)c(=O)oc2c1`, the melting point fell in the range of 88 to 93 °C.

As to `O=C1C=C(NC(=O)C(=O)c2cn(Cc3cccc(Cl)c3F)c3ccccc23)CO1`, the melting point was 248 to 250 °C. Next, `CC(C#Cc1ccc(C=Cc2cccnc2)o1)N(O)C(N)=O` (stereo not given): 166 °C. Next, `COc1ccc(C2(C#Cc3cccc(NC(C)=O)c3)CCCC(=O)C2)cc1OC1CCCC1` (stereo not given): 58 to 60 °C. The compound `O=C(O)CN1CCC(n2nc(-c3c(-c4ccccc4)nn4ccccc34)ccc2=O)C1=O` (stereo not given) had a melting point of 250 to 251 °C. Next, `N#Cc1ccc(CC23CCNN2C(=O)N(c2cc(Cl)nc(Cl)c2)C3=O)cc1` (stereo not given): 187 °C; `CCCCCCCCCCCCCCCCCC1OC1C` (stereo not given): 40 °C; `CCc1cc(Nc2nc(Nc3cc(CC)n[nH]3)c3ccccc3n2)[nH]n1`: 248 to 252 °C. For the compound `CSCC(O)CN1C(=O)C(CCC(=O)O)(NC(=O)c2ccc(Cl)c(Cl)c2)c2ccccc21` (stereo not given), the melting point lay within 168 to 170 °C. In turn, `O=C1CC(N2C=Nc3cc(Cl)cc(Cl)c3C2)C(=O)N1` (stereo not given) showed a melting point of 215 to 217 °C.

For `COC(=O)C1(C(N)=O)C(C(N)=O)=NC(c2ccccc2)=C1N` (stereo not given), the melting point was in the range of 177 to 179 °C. `NS(=O)(=O)c1ccccc1C(=S)N1CCCC1` had a melting point of 186 to 187 °C.

As for `CC(C)(C)OC(=O)N[C@@H]1CCc2ccc(OS(=O)(=O)C(F)(F)F)cc2C1`, the melting point was in the range of 52 to 55 °C.

The compound `CN1C(=O)NCc2cc(Br)cnc21` showed a melting point of 216 to 217 °C. On to `CCOC(=O)c1ccc(OCCCC2CCN(c3ccc(-c4ccc(F)cc4)nn3)CC2)cc1`, for which the melting point amounted to 160 °C.

For the compound `CC(C)N(CCN1C(=O)C(=O)c2cc(Br)ccc21)C(C)C`, the melting point is 91 to 93 °C. In turn, `CC(C)C[C@@H](C#N)NC(=O)[C@@H]1CCCC[C@@H]1NC(=O)c1ccc(-n2cncn2)cc1` displayed a melting point of 156 to 159 °C.

In turn, `CCC1(O)CC(=O)OCc2c1ccnc2OC` (stereo not given) came in with a melting point of 97 to 98 °C. Next, `COc1ccc(Nc2nc(-c3ccncc3)cs2)nc1`: 213 to 214 °C; `CC(=O)C1CCC2C3CCC4CC(C(C(=O)O)C(=O)O)CCC4(C)C3CCC12C` (stereo not given): 214 to 215 °C; `CC(C)(C)C(=O)Oc1ccc(C(=O)NNC(=O)c2occ(-c3ccccc3)c2-c2ccccc2)cc1C#N`: 152 to 154 °C. In turn, `Cc1c(C(=O)O)cnn1-c1nc(-c2cccc(Cl)c2)cs1` returned a melting point of 258 °C. Next, `Cc1ccc(S(=O)(=O)n2cncn2)cc1`: 105 to 107 °C; `CCCc1[nH]c2cc(C(=O)OC)ccc2c1C(=O)C1CC1`: 152 to 154 °C. Next, `C=CCSc1cc(C(=O)O)cc(N)c1Oc1ccccc1`: 142 to 143 °C; `COc1ccc(NC(=O)Nc2c(Cl)cncc2Cl)cc1OC1CCCC1`: 183 to 184 °C. Under `CCOC(=O)C1=C(N)NC2=C(C(=O)CCC2)C1c1nccc2ccccc12` (stereo not given) stands 272 °C; under `CC(C)CC(NC(=O)C(C)NC(=O)C(CC(=O)N1CCOCC1)Cc1cccc2ccccc12)C(O)C(=O)OC(C)C` (mixture of isomers), 178 to 183 °C. On to `Cc1ccc(S(=O)(=O)OCCOc2ccc(Nc3ncc(C#N)c(-c4ccccc4)n3)cc2)cc1`, for which the melting point stood at 147 °C.

On to `CCSc1ncccc1C(=O)N1CCC(=O)c2ccc(Cl)cc21`, for which the melting point lay within 120 to 123 °C.

In turn, `O=C(N1CCCCCC1)N1CC(Oc2cccc(C(F)(F)F)c2)C1` had a melting point of 64.5 to 66 °C. Under `CN(C)Cc1ccc(C=CC(=O)O)s1` stands 224 to 225 °C; under `CCOc1nc(=O)n([C@H]2CS[C@@H](CO)O2)cc1F` (relative stereo), 162 to 164 °C.

`CC(CCC1C(C)CCCC1(C)C)Oc1ccc(C(=O)O)cc1` (stereo not given) showed a melting point of 114 to 118 °C.

The compound `CCC1CCCCN1C(=O)C=Cc1c(-c2cccc(N(C)C)c2)nn2ccccc12` (stereo not given) registered a melting point of 180 to 184 °C. Next, `COc1ccc(CNC(=O)c2cc(C)ccc2N)cc1`: 144 to 145 °C; `O=C(CN1CCCCC1=O)N1CCC(C2c3ncc(Br)cc3CCc3cc(Cl)cc(Br)c32)CC1` (single isomer, unassigned; (+)): 138 to 139 °C. Next, `COc1cc(S(=O)(=O)c2ccccc2)ccc1[N+](=O)[O-]`: 128 to 130 °C; `O=[N+]([O-])c1ccc(O)c(C=NCCC(F)=C(F)F)c1`: 96 to 98 °C. Next, `CCCN(CCC)Cc1cnc(-c2ncn3c2CN(C)C(=O)c2sccc2-3)o1`: 142 to 144 °C; `COC(=O)c1c(Cl)cc(Cl)cc1NC(=O)C(C)c1ccccc1` (stereo not given): 83 to 84 °C. The compound `CCOc1ccc2ccccc2c1C(=O)N1CCC(NS(=O)(=O)c2cc(S(=O)(=O)c3ccccc3)ccc2C(C)C)CC1` yielded a melting point of 164 to 166 °C. Next, `CN1C(=O)C(c2ccc(OC(F)F)cc2)(c2cccc(C#CCCO)c2)N=C1N` (stereo not given): 90 to 93 °C; `CS(=O)(=O)Oc1ccc(-c2c3ccccc3cc3sc4ccccc4c23)cc1`: 136 to 139 °C.

Compound `CCCC(=O)Nc1cscn1` had a melting point of 63 to 66 °C. Next, `O=C(Nc1cccnc1)N1CCN(c2cc(-c3ccc(F)cc3)ncn2)CC1`: 180 to 182 °C. Next, `O=C(NC1(O)CC1)c1ccccc1`: 153 to 155 °C; `Cc1c(C(=O)N[C@H](C)[C@](O)(Cn2cncn2)c2ccc(F)cc2F)cnn1-c1ccccc1Cl`: 232 to 233 °C.

The compound `COCCOc1ccc(CO)c(Oc2ncc(C(F)(F)F)cc2Cl)c1` gave a melting point of 85 to 85.5 °C. Under `COC(=O)C1=C(C(F)F)NC(C)=C(C(=O)OC2CCCC2)C1c1cccc([N+](=O)[O-])c1C` (stereo not given) stands 154 to 156 °C. In turn, `Cc1cc(C)n(O)c(=O)c1Cc1ccccc1` displayed a melting point of 148 °C. Under `Cc1cc(OCc2sc(-c3ccc(C(F)(F)F)cc3)nc2C)ccc1OC(C)(C)C(=O)O` stands 154 °C; under `COc1cc(Cl)ccc1CN1C(=O)C(C)(c2cc(C(=O)N3CCCCC3)ccc2Cl)c2cc(Cl)ccc21` (stereo not given), 205 °C. For the compound `CCOC(=O)C=Cc1cc(-c2csc(-c3ccc(OCC)c(OCC)c3)n2)cc(C(=O)OCOC)c1OCOC`, the melting point was 94 to 96 °C. Next, `COc1cc(N)c(Cl)cc1C(=O)NN1CCN(Cc2ccsc2)CC1`: 223 to 224 °C; `O=[N+]([O-])c1ccccc1-c1ccc2c(c1)S(=O)(=O)NC(C1CCCCC1)N2` (stereo not given): 204 to 207 °C. Next, `COc1ccc(C(=O)CSc2cccc(OC)c2)cc1`: 53 to 54 °C; `CC(C)(C)c1cc(CON2C(=O)COc3ccc(C=C4SC(=S)NC4=O)cc32)cc(C(C)(C)C)n1`: above 300 °C. Next, `CNC(=O)[C@@H]1CCCN1S(=O)(=O)c1ccc(Cl)c(COc2cccc3c2NC(C)(C)C=C3n2cncn2)c1Cl`: 131 °C; `O=C(c1ccc([N+](=O)[O-])cc1)N1CCCCc2sccc21`: 141 to 142 °C; `COC(=O)c1cc2cc(NC(=O)c3cc4cc(N)ccc4[nH]3)ccc2[nH]1`: above 350 °C.

Take `CC(C)(C)OC(=O)N1CCC(C(c2cc(F)ccc2F)S(=O)(=O)c2ccc(Cl)cc2)CC1` (stereo not given): the melting point was 193 to 196 °C. Under `CC1(C)OC(=S)Nc2ccc(-c3cc(F)cc(Cl)c3)cc21` stands 204 to 205 °C; under `COn1c(C(F)(F)F)nc2ncc(Cl)cc21`, 91 to 92 °C. `CN(Cc1ccc(NC(=O)C2=Cc3cc(-c4ccc(N5CCCC5)cc4)ccc3OCC2)cc1)C1CCOCC1` had a melting point of 210 to 211 °C.

`CN(C(CCn1c(=O)cc(-c2ccccc2)[nH]c1=O)C(=O)NO)S(=O)(=O)c1ccc(Oc2ccccc2)cc1` (stereo not given) returned a melting point of 179 to 181 °C. Under `O=C1NCCc2ccc(OCCCN3CCN(c4cccc(Cl)c4Cl)CC3)cc21` stands 162 to 164 °C; under `O=C1NCCN(N=Cc2ccccc2)C1=O`, 231 to 234 °C; under `COCCCS(=O)(=O)NC(=O)CC(C)c1ccc(OCCOC)cc1Oc1ncc(C(F)(F)F)cc1Cl` (stereo not given), 107 to 109 °C.

As to `COc1cc(CNC(=O)c2nc3cnn(CCCc4ccccc4)c3c(=O)[nH]2)ccc1F`, the melting point fell in the range of 155 to 157 °C.

With `CN(C1CCN(c2ncc3ncnc(Nc4ccc(F)c(Cl)c4)c3n2)CC1)S(C)(=O)=O`, the melting point was 225 to 227 °C. Under `CNC(=O)c1cc2c(Oc3ccc(OC(F)(F)F)cc3)cncc2s1` stands 132 to 133 °C.
